# Measured values published in US8735395B2, “Protease inhibitors” (Medivir AB, priority 2008, dated 2014).
# Tests used:
# human cathepsin S = human cathepsin S (Homo sapiens (Human), UniProt P25774); assay: Cathepsin S Ki determination; type: biochemical
# Method: 280 μl/well of 12.5% DMSO are added to rows B-H of two columns of a 96 deep well polypropylene plate. […] 200 μl/well of assay buffer is added to columns 1 and 6. […] Mix row A using a multichannel pipette and double dilute to row G. Mix row H and read in the fluorescent spectrophotometer. […] The second test compound is added to column 6 of the top row, the third to column 1 of the second row etc. Add 1 μl of comparator to column 6 of the bottom row. Mix column 1 and double dilute to column 5. Mix column 6 and double dilute to column 10. Using an 8-channel multistepping pipette set to 5×10 μl, distribute 10 μl/well of substrate to the 384 well assay plate. Distribute the first column of the substrate dilution plate to all columns of the assay plate starting at row A. The tip spacing of the multichannel pipette will correctly skip alternate rows. Distribute the second column to all columns starting at row B. Using a 12-channel multistepping pipette set to 4×10 μl, distribute 10 μl/well of inhibitor to the 384 well assay plate. Distribute the first row of the inhibitor dilution plate to alternate rows of the assay plate starting at A1. The tip spacing of the multichannel pipette will correctly skip alternate columns. […] Mix 20 ml assay buffer and 20 μl 1M DTT. […] Using the a distributor such as a Multidrop 384, add 30 μl/well to all wells of the assay plate and read in fluorescent spectrophotomoter such as an Ascent. Fluorescent readings, (excitation and emission wavelengths 390 nm and 460 nm respectively, set using bandpass filters) reflecting the extent of enzyme cleavage of the fluorescent substrate, notwithstanding the inhibitor, are linear rate fitted for each well. […] Potential inhibitors are screened using the above assay with variable concentrations of test compound. Reactions were initiated by addition of enzyme to buffered solutions of substrate and inhibitor.
# [1] = In vivo mouse PK, oral administration (FIG. 1); details: male C57BI mice, oral 60 μmol/kg in 1% Methocel A4C; compared with Example 2 of WO2008 007107
# Text: FIG. 1 depicts plasma concentration against time for male C57BI mice orally administered a compound of the invention or a compound of the prior art.
# Various embodiments of the invention will now be described by way of illustration only with reference to the following Examples and FIG. 1 which depicts plasma concentration against time for male C57BI mice orally administered a compound of the invention or a compound of the prior art.
# [2] = molecular target: human recombinant cathepsin K (Homo sapiens (Human), UniProt P43235); assay: Determination of cathepsin K proteolytic catalytic activity (Ki); type: biochemical
# Method: Determination of Cathepsin K Proteolytic Catalytic Activity
# Convenient assays for cathepsin K are carried out using human recombinant enzyme, such as that described in PDB.
# The recombinant cathepsin K can be expressed in a variety of commercially available expression systems including E coli, Pichia and Baculovirus systems. The purified enzyme is activated by removal of the prosequence by conventional methods.
# The enzyme concentration used was 5 nM. The stock substrate solution was prepared at 10 mM in DMSO. Screens were carried out at a fixed substrate concentration of 60 μM and detailed kinetic studies with doubling dilutions of substrate from 250 μM. The total DMSO concentration in the assay was kept below 3%. All assays were conducted at ambient temperature. Product fluorescence (excitation at 390 nm, emission at 460 nm) was monitored with a Labsystems Fluoroskan Ascent fluorescent plate reader. Product progress curves were generated over 15 minutes following generation of AMC product.
# (§1) Potential inhibitors are screened using the above assay with variable concentrations of test compound. Reactions were initiated by addition of enzyme to buffered solutions of substrate and inhibitor. Ki values were calculated according to equation 1.
# where v0 is the velocity of the reaction, V is the maximal velocity, S is the concentration of substrate with Michaelis constant of KM, and I is the concentration of inhibitor.
# Caco-2 permeability = details: human
# Method: (§3) This experiment measures transport of inhibitors through the cells of the human gastroenteric canal. The assay uses the well known Caco-2 cells with a passage number between 40 and 60.
# (§4) The basolateral and the apical wells will contain 1.5 mL and 0.4 mL transport buffer (TB), respectively, and the standard concentration of the tested substances is 10 μM. Furthermore all test solutions and buffers will contain 1% DMSO. Prior to the experiment the transport plates are pre-coated with culture medium containing 10% serum for 30 minutes to avoid nonspecific binding to plastic material. After 21 to 28 days in culture on filter supports the cells are ready for permeability experiments.
# (§5) In ASB screening the TB in basolateral well also contains 1% Bovine Serum Albumin.
# (§6) 0.5 mL transport buffer (HBSS, 25 mM MES, pH 6.5) is added to the inserts and the cell monolayers equilibrated in the transport buffer system for 30 minutes at 37° C. in a polymix shaker. After being equilibrated to the buffer system the Transepithelial electrical resistance value (TEER) is measured in each well by an EVOM chop stick instrument. […]
# (§7) 300 μL will be taken from the basolateral (receiver) wells at each scheduled time point and the post value of TEER is measured at the end the experiment. […]
# FAcum is calculated from: […]
# (§8) The determination of permeability coefficients (Papp, cm/s) are calculated from: […]
# human cathepsin L = human cathepsin L (Homo sapiens (Human), UniProt P07711); assay: Cathepsin L Ki; type: biochemical
# Method: The procedure above with the following amendments is used for the determination of Ki for cathepsin L.
# The enzyme is commercially available human cathepsin L (for example Calbiochem). The substrate is H-D-Val-Leu-Lys-AMC available from Bahcem. The assay buffer is 100 mM sodium acetate 1 mM EDTA, pH5.5) The DMSO stock (10 mM in 100% DMSO) is diluted to 10% in assay buffer. Enzyme is prepared at 5 nM concentration in assay buffer plus 1 mM dithiothreitol just before use. 2 ul of 10 mM inhibitor made up in 100% DMSO is dispensed into row A. 10 μl of 50 μM substrate (=1/200 dilution of 10 mM stock in DMSO, diluted in assay buffer)
# as §1
# [3] = reference markers for the Caco-2 assay; cited from earlier work
# [4] = Metabolic stability in whole blood (CLint); type: in vitro ADME
# Method: (§2) Alternatively, an analogous stability assay is carried out in human or monkey whole blood and/or commercially available liver microsomes, such as XEN 025.
# [5] = Metabolic stability in liver microsomes (HLM CLint); type: in vitro ADME; details: human
# Method: as §2
# Method for Caco-2 cells: as §3, §4, §5, §6, §7
# FAcum is calculated from: […]
# as §8
# Chain of human recombinant cathepsin K (P43235 115-329): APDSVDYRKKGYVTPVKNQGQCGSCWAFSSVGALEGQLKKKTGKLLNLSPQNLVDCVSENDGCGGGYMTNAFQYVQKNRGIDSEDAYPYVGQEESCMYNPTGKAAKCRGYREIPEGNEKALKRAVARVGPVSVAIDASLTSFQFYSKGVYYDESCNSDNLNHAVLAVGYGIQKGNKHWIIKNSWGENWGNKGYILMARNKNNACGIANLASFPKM
# Chain of human cathepsin S (P25774 115-331): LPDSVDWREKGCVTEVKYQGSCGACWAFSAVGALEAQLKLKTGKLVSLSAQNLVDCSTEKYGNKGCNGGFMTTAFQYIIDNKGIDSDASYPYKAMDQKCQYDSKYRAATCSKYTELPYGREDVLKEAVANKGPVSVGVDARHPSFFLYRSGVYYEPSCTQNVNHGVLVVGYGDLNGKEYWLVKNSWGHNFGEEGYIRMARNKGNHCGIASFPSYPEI
# Chain of human cathepsin L (P07711 114-333): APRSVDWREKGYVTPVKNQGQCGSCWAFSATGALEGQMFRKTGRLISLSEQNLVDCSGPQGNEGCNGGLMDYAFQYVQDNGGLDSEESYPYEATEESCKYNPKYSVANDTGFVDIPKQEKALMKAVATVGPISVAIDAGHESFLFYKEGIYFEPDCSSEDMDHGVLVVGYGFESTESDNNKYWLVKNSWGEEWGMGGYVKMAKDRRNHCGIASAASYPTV
Compound,Ki (human cathepsin S; Test 2 or unnumbered test) [µM],"Ki ([2]; Test 1, class symbols) [µM]",Ki ([2]; Test 2 or unnumbered test) [µM],"Ki (human cathepsin L; Test 1, class symbols) [µM]",Ki (human cathepsin L; Test 2 or unnumbered test) [µM],% absorption in man [3] [%],further results
CC(C)C[C@H](NC(=O)c1ccc(-c2csc(N3CCN(C)CC3)n2)cc1)C(=O)N1C[C@@H](C=C(Br)Br)[C@H]2OCC(=O)[C@H]21 [Ref Ex 9],6.1,–,–,–,–,–,–
"C#C[C@@H]1CN(C(=O)[C@H](CC(C)C)NC(=O)c2ccc(-c3nc(N4CCN(C)CC4)sc3F)cc2)[C@@H]2C(=O)CO[C@H]12 [Example 2, N-[1-6-(ethynyl-3-oxo-hexahydro-furo[3,2-b]pyrrole-4-carbonyl)-3-methyl-butyl]-4-[5-fluoro-2-(4-methyl-piperazin-1-yl)thiazol-4-yl]-benzamide]",21,< 0.05,0.0011,1 to 5,1.7,–,"in vivo exposure (Cmax or AUC) [1]: very much greater; Ki (human cathepsin S; Test 1, class symbols): > 10 µM; Papp at 120 min, 10 µM (Caco-2 permeability): 9.1 ×10⁻⁶ cm/s"
OC[C@@H](O)[C@@H](O)[C@H](O)[C@H](O)CO [Mannitol],–,–,–,–,–,16,–
CN(Cc1cnc2nc(N)nc(N)c2n1)c1ccc(C(=O)N[C@@H](CCC(=O)O)C(=O)O)cc1 [Methotrexate],–,–,–,–,–,20,–
"CC(C)=C[C@@H]1CN(C(=O)[C@H](CC(C)C)NC(=O)c2ccc(-c3nc(N4CCN(C)CC4)sc3F)cc2)[C@@H]2C(=O)CO[C@H]12 [Example 4, N-[1-6-(dimethylvinyl-3-oxo-hexahydro-furo[3,2-b]pyrrole-4-carbonyl)-3-methyl-butyl]-4-[5-fluoro-2-(4-methyl-piperazin-1-yl)thiazol-4-yl]-benzamide]",–,–,0.0027,–,0.3,–,–
"C#C[C@@H]1CN(C(=O)[C@H](CC(C)C)NC(=O)c2ccc(-c3csc(N4CCN(C)CC4)n3)cc2)[C@@H]2C(=O)CO[C@H]12 [Example 1, N-[1-6-(ethynyl-3-oxo-hexahydro-furo[3,2-b]pyrrole-4-carbonyl)-3-methyl-butyl]-4-[2-(4-methyl-piperazin-1-yl)thiazol-4-yl]-benzamide]",25,< 0.05,0.0016,1 to 5,2,–,"Ki (human cathepsin S; Test 1, class symbols): > 10 µM; microsomal CLint ([4]; whole blood): 3 µL/min/mg; microsomal CLint [5]: 16 µL/min/mg"
CC(C)C[C@H](NC(=O)c1ccc(-c2csc(N3CCN(C)CC3)n2)cc1)C(=O)N1C[C@@H](C)[C@H]2OCC(=O)[C@H]21 [comparative example],–,–,–,–,–,–,estimated / calculated whole blood half life ([4]; calculated from whole blood CLint): little over an hour; microsomal CLint ([4]; whole blood): 9 µL/min/mg; whole blood CLint value ([4]; whole blood): 9 µL/min/mg; microsomal CLint [5]: 49 µL/min/mg
N[C@@H](Cc1ccccc1)C(=O)O [L-Phenylalanine],–,–,–,–,–,100,–
"N—((S)-1-((3aS,6R,6aS)-6-methoxy-oxodihydro-2H-furo[3,2-b]pyrrol-4(5H,6H,6aH)-yl)-4-methyl-oxopentan-2-yl)-4-(2-(4-methylpiperazine-1-yl)thiazol-4-yl)benzamide",–,–,–,–,–,–,papp value (Caco-2 cells): 9e-07 cm/s
"C#C[C@@H]1CN(C(=O)[C@H](CC(C)C)NC(=O)c2ccc(-c3csc(N4CCN(C)CC4)n3)c(F)c2)[C@@H]2C(=O)CO[C@H]12 [Example 3, N-[1-6-(ethynyl-3-oxo-hexahydro-furo[3,2-b]pyrrole-4-carbonyl)-3-methyl-butyl]-3-fluoro-4-[2-(4-methyl-piperazin-1-yl)thiazol-4-yl]-benzamide]",–,< 0.05,0.004,0.501 to 1,1.4,–,–
